The record followed here is patent USRE47689E1, “Compounds for treating spinal muscular atrophy” (PTC Therapeutics, Inc., priority 2011, dated 2019).

Usually melting point stands for the temperature of the solid-liquid transition.

Structures are written as SMILES. Counter-ions that a name gives are not always drawn. Like-named read-outs stand apart in the source and are kept apart here.

In data set [1] the test system is SMN2 minigene (full length SMN2 minigene mRNA containing SMN2 exon 7). Put plainly: SMN2 minigene mRNA splicing RT-qPCR assay in cultured cells. It counts as cell-based, human. The note with it: for EC (1.5-fold): Homo sapiens, HEK293-H, read-out: EC1.5x for production of full length SMN2 mRNA. A digest of the protocol:
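Lysates → one-step RT-qPCR, minigene-specific primers (0.4 μM final) + GAPDH multiplex, 40 cycles. FL/GAPDH vs DMSO; EC1.5x, star-binned.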

In the next data set the test system is Smn protein. The data set can be described thus: Smn protein assay in cultured cells (SMN HTRF). The data set is classed as cell-based, human. The settings on record: 48 hours; for maximum fold (Fold) increase of Smn protein: SMA patient fibroblast cells, 7-point concentration data, fold increase relative to vehicle control (SMN HTRF); for EC1.5x (concentration giving 1.5-fold Smn protein increase): SMA Type 1 patient fibroblast cells (GM03813), 7-point concentration curve, SMN HTRF, concentration producing 1.5 times Smn protein vs DMSO vehicle control, read-out: EC1.5x for Smn protein expression. A digest of the protocol: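 Smn in SMA fibroblast lysates, measured by anti-SMN HTRF after 48 h compound exposure; EC1.5x from fold change over vehicle.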
Background: Time-resolved FRET reads energy transfer from a long-lived donor to a nearby acceptor.

Where [2] appears, read: HEK293H cells stably transfected with SMN2-A minigene, 24 hours, 7-point concentration curve, 1.5-fold relative to vehicle-treated cells.

With `Cc1ccc2oc(-c3cc4ccc(N5CCN(C)CC5)cc4oc3=O)cc2n1` [Cpd 698, 3-(5-methylfuro[3,2-b]pyridin-2-yl)-7-(4-methylpiperazin-1-yl)-2H-chromen-2-one], the melting point lay within 178 to 180 °C. Moreover, in data set [1] (setting [2]), the EC (1.5-fold) was in the range of 1 to 3 µM. Besides, the “maximum fold (Fold) increase of Smn protein” value (“maximum fold (Fold) increase” below) in the data set on Smn protein was “* (maximum fold increase of ≤1.2)”.
Regarding `O=c1oc2cc(N3CCN(CCO)CC3)ccc2cc1-c1cn2cccc(Cl)c2n1` [Compound 121, 3-(8-chloroimidazo[1,2-a]pyridin-2-yl)-7-[4-(2-hydroxyethyl)piperazin-1-yl]-2H-chromen-2-one], the melting point was 247 to 250 °C. Besides, the EC (1.5-fold) in data set [1] (setting [2]) was 0.3 to 1 µM. Further, the “maximum fold (Fold) increase” value in the data set with Smn protein is “*** (fold increase between >1.35 and ≤1.5)”.
`Cc1csc(-c2cc3ccc(N4CCN[C@H](C)C4)cc3oc2=O)n1` [Compound 300, 7-[(3R)-3-methylpiperazin-1-yl]-3-(4-methyl-1,3-thiazol-2-yl)-2H-chromen-2-one] registered a melting point of 176 °C. Moreover, the EC (1.5-fold) in data set [1] (24 h) is 1 to 3 µM. Also, the “maximum fold (Fold) increase” value with Smn protein is “* (maximum fold increase of ≤1.2)”.
For `CCN1CCN(c2ccc3cc(-c4cn5cc(C)nc(C)c5n4)c(=O)oc3c2)CC1` [Compound 621, 3-(6,8-dimethylimidazo[1,2-a]pyrazin-2-yl)-7-(4-ethylpiperazin-1-yl)-2H-chromen-2-one], the melting point lay in the range of 215 to 217 °C. For the same compound, in data set [1] (setting [2]), the EC (1.5-fold) is less than 0.1 µM. In the data set on Smn protein, the EC1.5x (concentration giving 1.5-fold Smn protein increase) is less than 300 nM and the “maximum fold (Fold) increase” value is listed as “***** (fold increase >1.65)”.
As for `CC(C)N1CCN(c2ccc3cc(-c4cc5ccccn5n4)c(=O)oc3c2)CC1` [Compound 196, 7-[4-(propan-2-yl)piperazin-1-yl]-3-(pyrazolo[1,5-a]pyridin-2-yl)-2H-chromen-2-one], the melting point lay within 243 to 246 °C. In addition, the EC (1.5-fold) in data set [1] (setting [2]) was in the range of 1 to 3 µM. The “maximum fold (Fold) increase” value in the data set with Smn protein is “* (maximum fold increase of ≤1.2)”.
For `Cc1cn2cc(-c3cc4ccc(CCN(C)CCO)cc4oc3=O)nc2c(C)n1` [Compound 871, 3-(6,8-dimethylimidazo[1,2-a]pyrazin-2-yl)-7-{2-[(2-hydroxyethyl)(methyl)amino]ethyl}-2H-chromen-2-one], the melting point is 168 to 172 °C. Further, the EC (1.5-fold) in data set [1] (setting [2]) was less than 0.1 µM. In addition, in the data set on Smn protein, the EC1.5x (concentration giving 1.5-fold Smn protein increase) was less than 300 nM; the “maximum fold (Fold) increase” value is “**** (fold increase between >1.5 and ≤1.65)”.
In the case of `Cc1nc(Cl)cn2cc(-c3cc4ccc(N5CCN[C@H](C)C5)cc4oc3=O)nc12` [Compound 699, 3-(6-chloro-8-methylimidazo[1,2-a]pyrazin-2-yl)-7-[(3R)-3-methylpiperazin-1-yl]-2H-chromen-2-one], the melting point fell in the range of 265 to 268 °C. For the same compound, the EC (1.5-fold) in data set [1] (setting [2]) is 0.1 to 0.3 µM. In addition, in the data set on Smn protein, the EC1.5x (concentration giving 1.5-fold Smn protein increase) was in the range of 300 to 1000 nM and the “maximum fold (Fold) increase” value is given as “***** (fold increase >1.65)”.
Compound `Cc1cn2cc(-c3cc4ccc(N5C[C@H]6CCCN[C@H]6C5)cc4oc3=O)nc2c(C)n1` [Compound 781, 3-(6,8-dimethylimidazo[1,2-a]pyrazin-2-yl)-7-[(4aR,7aR)-octahydro-6H-pyrrolo[3,4-b]pyridin-6-yl]-2H-chromen-2-one] returned a melting point of 246 to 252 °C. In addition, in data set [1] (setting [2]), the “EC1.5x for production of full length SMN2 mRNA” value was “***** (EC1.5x≤0.1 μM)”. In addition, the “maximum fold (Fold) increase” value in the data set with Smn protein is “** (fold increase between >1.2 and ≤1.35)”.
`O=c1oc2cc(OC3CCNCC3)ccc2cc1-c1nc2ccccc2s1` [Compound 46, 3-(1,3-benzothiazol-2-yl)-7-(piperidin-4-yloxy)-2H-chromen-2-one] displayed a melting point of 220 to 226 °C. In addition, the EC (1.5-fold) in data set [1] (setting [2]) is 0.3 to 1 µM.
`CN1CCN(c2ccc3cc(-c4cccc(C(F)(F)F)c4)c(=O)oc3c2)CC1` [Compound 11, 7-(4-methylpiperazin-1-yl)-3-[3-(trifluoromethyl)phenyl]-2H-chromen-2-one] returned a melting point of 150 to 156 °C. For the same compound, in data set [1] (setting [2]), the EC (1.5-fold) is 3 to 30 µM.
With `Cc1cccn2cc(-c3cc4ccc(N5CCN(CCO)CC5)cc4oc3=O)nc12` [Compound 102, 7-[4-(2-hydroxyethyl)piperazin-1-yl]-3-(8-methylimidazo[1,2-a]pyridin-2-yl)-2H-chromen-2-one], the melting point fell in the range of 210 to 212 °C. Moreover, the EC (1.5-fold) in data set [1] (setting [2]) was 1 to 3 µM.
In the case of `O=c1oc2cc(CN3CCC(O)CC3)ccc2cc1-c1nc2c(Cl)cccc2s1` [Compound 273, 3-(4-chloro-1,3-benzothiazol-2-yl)-7-[(4-hydroxypiperidin-1-yl)methyl]-2H-chromen-2-one], the melting point fell in the range of 193 to 196 °C. Moreover, in data set [1] (setting [2]), the EC (1.5-fold) lay in the range of 1 to 3 µM.
For `O=c1oc2cc(N3CCNCC3)ccc2cc1-c1ccc(Cl)cn1` [Compound 113, 3-(5-chloropyridin-2-yl)-7-(piperazin-1-yl)-2H-chromen-2-one], the melting point fell in the range of 180 to 182 °C. For the same compound, the EC (1.5-fold) in data set [1] (24 h) fell in the range of 3 to 30 µM.
Compound `Cc1ccn2cc(-c3cc4ccc(O[C@@H]5CCNC5)cc4oc3=O)nc2c1` (as salt: hydrochloride) [Compound 323, 3-(7-methylimidazo[1,2-a]pyridin-2-yl)-7-[(3R)-pyirolidin-3-yloxy]-2H-chromen-2-one hydrochloride (1:2)] registered a melting point of 271 to 275 °C.
For `O=c1oc2cc(N3CCNCC3)ccc2cc1Nc1ccccn1` [Cpd 32, 7-(piperazin-1-yl)-3-(pyridin-2-ylamino)-2H-chromen-2-one], the melting point was 191 to 194 °C. For the same compound, the EC (1.5-fold) in data set [1] (24 h) lay within 3 to 30 µM.
For `O=c1oc2cc(N3CCNCC3)ccc2cc1-c1nc2ccccc2s1` (as salt: hydrochloride) [Cpd 4, 3-(1,3-benzothiazol-2-yl)-7-(piperazin-1-yl)-2H-chromen-2-one hydrochloride], the melting point is 250 °C (dec.).
As for `O=c1oc2cc(N3CCNCC3)ccc2cc1Nc1cccnc1` [Compound 66, 7-(piperazin-1-yl)-3-(pyridin-3-ylamino)-2H-chromen-2-one], the melting point lay within 172 to 175 °C. Besides, the EC (1.5-fold) in data set [1] (24 h) was 3 to 30 µM.
`Cc1cn2cc(-c3cc4ccc(N5CCN[C@H](C)C5)cc4oc3=O)cc2cn1` [Compound 637, 7-[(3R)-3-methylpiperazin-1-yl]-3-(3-methylpyrrolo[1,2-a]pyrazin-7-yl)-2H-chromen-2-one] returned a melting point of 220 to 223 °C. In addition, the EC (1.5-fold) in data set [1] (setting [2]) is less than 0.1 µM.
Take `Cn1ccc(-c2cc3ccc(N4CCNCC4)cc3oc2=O)n1` [Cpd 38, 3-(1-methyl-1H-pyrazol-3-yl)-7-(piperazin-1-yl)-2H-chromen-2-one]: the melting point lay within 224 to 228 °C. In addition, in data set [1] (24 h), the EC (1.5-fold) lay in the range of 1 to 3 µM.
`Cc1cccc2oc(-c3cc4ccc(N5CCN(C)CC5)cc4oc3=O)nc12` [Compound 21, 3-(4-methyl-1,3-benzoxazol-2-yl)-7-(4-methylpiperazin-1-yl)-2H-chromen-2-one]: the melting point fell in the range of 217 to 219 °C. Besides, in data set [1] (setting [2]), the EC (1.5-fold) was in the range of 3 to 30 µM.
As to `O=c1oc2cc(N3CCNCC3)ccc2cc1Nc1ncccn1` [Compound 33, 7-(piperazin-1-yl)-3-(pyrimidin-2-ylamino)-2H-chromen-2-one], the melting point was in the range of 193 to 195 °C. Further, in data set [1] (24 h), the EC (1.5-fold) is 3 to 30 µM.
Turning to `Cc1cccn2cc(-c3cc4ccc(N5CCNCC5)cc4oc3=O)nc12` [Compound 44, 3-(8-methylimidazo[1,2-a]pyridin-2-yl)-7-(piperazin-1-yl)-2H-chromen-2-one], the melting point is 190 to 193 °C. Besides, in data set [1] (setting [2]), the EC (1.5-fold) lay in the range of 0.3 to 1 µM.
Compound `COc1cccc(-c2cc3ccc(N4CCNCC4)cc3oc2=O)c1` [Compound 77, 3-(3-methoxyphenyl)-7-(piperazin-1-yl)-2H-chromen-2-one] yielded a melting point of 127 to 130 °C. In data set [1] (setting [2]), the EC (1.5-fold) is 3 to 30 µM.
In turn, `CN(C)C1CCN(c2ccc3cc(-c4nc5ccccc5o4)c(=O)oc3c2)C1` (stereo not drawn) [Compound 48, 3-(1,3-benzoxazol-2-yl)-7-[3-(dimethylamino)pyrrolidin-1-yl]-2H-chromen-2-one] yielded a melting point of 222 to 224 °C. Also, in data set [1] (setting [2]), the EC (1.5-fold) lay in the range of 1 to 3 µM.
On to `O=c1oc2cc(N3CCNCC3)ccc2cc1-c1nc2c(Cl)cccc2s1` (as salt: hydrochloride) [Cpd 5, 3-(4-chloro-1,3-benzothiazol-2-yl)-7-(piperazin-1-yl)-2H-chromen-2-one hydrochloride], for which the melting point is 290 °C (dec.).
Take `Cl.O=c1oc2cc(N3CCNCC3)ccc2cc1-c1nc2c(C(F)(F)F)cccc2o1`: the melting point lay in the range of 339 to 341 °C.
Compound `CN1CCN(c2ccc3cc(-c4ccn(-c5ccccc5)n4)c(=O)oc3c2)CC1` [Cpd 74, 7-(4-methylpiperazin-1-yl)-3-(1-phenyl-1H-pyrazol-3-yl)-2H-chromen-2-one] had a melting point of 152 to 159 °C. The EC (1.5-fold) in data set [1] (setting [2]) was in the range of 3 to 30 µM.
Regarding `CCN1CC[C@@H](Oc2ccc3cc(-c4nc5ccccc5s4)c(=O)oc3c2)C1` [Compound 127, 3-(1,3-benzothiazol-2-yl)-7-{[(3R)-1-ethylpyrrolidin-3-yl]oxy}-2H-chromen-2-one], the melting point fell in the range of 195 to 198 °C. Moreover, the EC (1.5-fold) in data set [1] (setting [2]) fell in the range of 1 to 3 µM.
